Here are results for 19 compounds from patent publication US9174997B2, “4-(4-cyano-2-thioaryl)dihydropyrimidinones and use thereof” (Bayer Intellectual Property GmbH, priority 2007, dated 2015).

One data set concerns rat hepatocytes. Kind of data set: Hepatocyte assay to determine the metabolic stability. Type of data set: in vitro ADME. The note with it: after incubation with rat hepatocytes. As for the experimental part:
B-6. Hepatocyte Assay to Determine the Metabolic Stability
The metabolic stability of test compounds in the presence of hepatocytes is determined by incubating the compounds with low concentrations (preferably below or around 1 μM) and with low cell counts (preferably 1*10^6 cells/ml) in order to ensure as far as possible linear kinetic conditions in the experiment. Seven samples of the incubation solution are taken in a fixed time pattern for the […] analysis in order to determine the half-life (i.e. the degradation) of the compound in each case. Various clearance parameters (CL) and Fmax values are calculated from this half-life (see below).
The Cl and Fmax values represent a measure of the phase 1 and phase 2 metabolism of the compounds in the hepatocytes. In order to minimize the influence of the organic solvent on the enzymes in the incubation mixtures, this concentration is generally limited to 1% (acetonitrile) or 0.1% (DMSO).
A cell count for hepatocytes in the liver of 1.1*10^8 cells/g of liver is used for calculation for all species and breeds.
The calculated parameters and their meaning are:
Representative values for the compounds according to the invention from this assay after incubation of the compounds with rat hepatocytes are shown in Table B below: […]

Data set [1] deals with human neutrophil elastase (HNE) (Homo sapiens (Human), UniProt P08246). Kind of data set: In vitro HNE inhibition assay. The class given is biochemical. The note with it: HNE concentration of 80 pM; substrate MeOSuc-Ala-Ala-Pro-Val-AMC; 37° C. for 2 hours. As for the experimental part: B-1. In Vitro HNE Inhibition Assay
Chain of human neutrophil elastase (HNE) (P08246 30-267): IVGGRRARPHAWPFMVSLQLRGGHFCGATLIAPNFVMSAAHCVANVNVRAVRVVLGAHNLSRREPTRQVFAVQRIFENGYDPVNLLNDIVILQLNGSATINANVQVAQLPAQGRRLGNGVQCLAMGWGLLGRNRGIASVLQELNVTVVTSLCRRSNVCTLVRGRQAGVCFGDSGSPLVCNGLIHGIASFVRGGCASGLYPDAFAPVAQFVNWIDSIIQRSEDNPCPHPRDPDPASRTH
The potency of the compounds of the invention is ascertained in an in vitro inhibition assay. The HNE-mediated amidolytic cleavage of a suitable peptide substrate leads in this connection to an increase in the fluorescent light. The signal intensity of the fluorescent light is directly proportional to the enzyme activity.
Enzyme ([…]; from Serva, Heidelberg) and substrate (20 μM MeOSuc-Ala-Ala-Pro-Val-AMC; from Bachem, Weil am Rhein) are incubated in an assay volume of in total 50 μl of assay buffer (0.1 M HEPES pH 7.4, 0.5 M NaCl, 0.1% w/v BSA, 1% v/v DMSO) in a 384-well microtiter plate in the presence and absence of the test substance at 37° C. for 2 hours. […] The IC50 values are determined by plotting the intensity of the fluorescent light against the active substance concentration.

The structures appear in SMILES notation.

In general, IC50 refers to the point on the concentration scale where inhibition reaches its midpoint. Lower therefore signals inhibition by little substance. As for `[C-]#[N+]C1=C(C)N(c2cccc(C(F)(F)F)c2)C(=O)N[C@@H]1c1ccc(C#N)cc1[S@+](C)[O-]` (single isomer, unassigned; diastereomer 1) [Example 43 (Diastereomer 1)], in the data set with rat hepatocytes, the “CLblood, calculated blood clearance (well stirred model)” value (“CLblood, calculated blood clearance” for short) was 21.7 mL/min/kg and the “Fmax, maximum possible bioavailability after oral administration (well-stirred)” value (“Fmax, maximum possible bioavailability” below) turned out to be 69%. In data set [1], this compound gave an IC50 of 0.3 nM.
`CC1=C(C#N)[C@@H](c2ccc(C#N)cc2S(C)(=O)=O)N(S(=O)(=O)c2ccc(F)cc2)C(=O)N1c1cccc(C(F)(F)F)c1` [Example 91]: in the data set with rat hepatocytes, the “CLblood, calculated blood clearance” value is 12 mL/min/kg and the “Fmax, maximum possible bioavailability” value was 83%. In data set [1], the IC50 was under 0.3 nM.
Consider `CC1=C(C#N)[C@@H](c2ccc(C#N)cc2S(C)(=O)=O)N(CC(N)=O)C(=O)N1c1cccc(C(F)(F)F)c1` [Example 22, 2-[(6S)-5-Cyano-6-[4-cyano-2-(methylsulfonyl)phenyl]-4-methyl-2-oxo-3-[3-(trifluoromethyl)phenyl]-3,6-dihydropyrimidin-1(2H)-yl]acetamide], for which, in the data set on rat hepatocytes, the “CLblood, calculated blood clearance” value was 3.3 mL/min/kg and the “Fmax, maximum possible bioavailability” value is 95%. In addition, in data set [1], the IC50 was 0.45 nM.
The like results for `CCS(=O)(=O)c1cc(C#N)ccc1[C@@H]1C(C#N)=C(C)N(c2cccc(C(F)(F)F)c2)C(=O)N1C` [Example 128, (4S)-4-[4-Cyano-2-(ethylsulfonyl)phenyl]-3,6-dimethyl-2-oxo-1-[3-(trifluoromethyl)phenyl]-1,2,3,4-tetrahydropyrimidine-5-carbonitrile] were, in that order, 15 mL/min/kg, 78% and under 0.3 nM.
With `CC1=C(C#N)[C@@H](c2ccc(C#N)cc2S(C)(=O)=O)N(S(=O)(=O)C2CC2)C(=O)N1c1cccc(C(F)(F)F)c1` [Example 32, (4S)-4-[4-Cyano-2-(methylsulfonyl)phenyl]-6-methyl-3-(cyclopropylsulfonyl)-2-oxo-1-[3-(trifluoromethyl)phenyl]-1,2,3,4-tetrahydropyrimidine-5-carbonitrile], in the data set with rat hepatocytes, the “CLblood, calculated blood clearance” value is 1.7 mL/min/kg and the “Fmax, maximum possible bioavailability” value is on record as 97%. This compound also returned an IC50 in data set [1] of under 0.3 nM.
`CC1=C(C#N)[C@@H](c2ccc(C#N)cc2S(C)(=O)=O)N(C(=O)NCCO)C(=O)N1c1cccc(C(F)(F)F)c1` [Example 10, (6S)-5-Cyano-6-[4-cyano-2-(methylsulfonyl)phenyl]-N-(2-hydroxyethyl)-4-methyl-2-oxo-3-[3-(trifluoromethyl)phenyl]-3,6-dihydropyrimidine-1(2H)-carboxamide]: in the data set with rat hepatocytes, the “CLblood, calculated blood clearance” value is 25 mL/min/kg and the “Fmax, maximum possible bioavailability” value turned out to be 65%. Besides, in data set [1], the IC50 was under 0.3 nM.
Take `CC1=C(C#N)[C@@H](c2ccc(C#N)cc2S(C)(=O)=O)N(C(=O)NN(CCO)CCO)C(=O)N1c1cccc(C(F)(F)F)c1` [Example 12, (6S)-5-Cyano-6-[4-cyano-2-(methylsulfonyl)phenyl]-N′,N′-bis(2-hydroxyethyl)-4-methyl-2-oxo-3-[3-(trifluoromethyl)phenyl]-3,6-dihydropyrimidine-1(2H)-carbohydrazide]: in the data set with rat hepatocytes, the “CLblood, calculated blood clearance” value is 28.3 mL/min/kg and the “Fmax, maximum possible bioavailability” value amounted to 59%. In data set [1], this compound displayed an IC50 of under 0.3 nM.
On to `CC1=C(C#N)[C@@H](c2ccc(C#N)cc2S(C)(=O)=O)N(CC#N)C(=O)N1c1cccc(C(F)(F)F)c1` [Example 116, (4S)-3-(Cyanomethyl)-4-[4-cyano-2-(methylsulfonyl)phenyl]-6-methyl-2-oxo-1-[3-(trifluoromethyl)phenyl]-1,2,3,4-tetrahydropyrimidine-5-carbonitrile], for which, in the data set on rat hepatocytes, the “CLblood, calculated blood clearance” value is 6.7 mL/min/kg and the “Fmax, maximum possible bioavailability” value came to 91%. Further, the IC50 in data set [1] is under 0.3 nM.
Take `CN1CC2=C(C1=O)[C@@H](c1ccc(C#N)cc1S(C)(=O)=O)N(S(C)(=O)=O)C(=O)N2c1cccc(C(F)(F)F)c1` [Example 36, 4-{(4S)-6-Methyl-3-(methylsulfonyl)-2,5-dioxo-1-[3-(trifluoromethyl)phenyl]-2,3,4,5,6,7-hexahydro-1H-pyrrolo[3,4-d]pyrimidin-4-yl}-3-(methylsulfonyl)benzonitrile]: in the data set with rat hepatocytes, the “CLblood, calculated blood clearance” value was 6.7 mL/min/kg and the “Fmax, maximum possible bioavailability” value was 89%. Besides, the concentration for half-maximal inhibition (IC50) in data set [1] is under 0.3 nM.
In turn, `CC1=C(C#N)[C@@H](c2ccc(C#N)cc2S(C)(=O)=O)N(C(=O)OCc2ccccc2)C(=O)N1c1cccc(C(F)(F)F)c1` (stereo in doubt) [Example 120, Benzyl 5-cyano-6-[4-cyano-2-(methylsulfonyl)phenyl]-4-methyl-2-oxo-3-[3-(trifluoromethyl)phenyl]-3,6-dihydropyrimidine-1(2H)-carboxylate] gave an IC50 in data set [1] of under 0.3 nM.
With `CSc1cc(C#N)ccc1[C@H]1NC(=O)N(c2cccc(C(F)(F)F)c2)C(C)=C1C#N` [Example 41, (4S)-4-[4-Cyano-2-(methylsulfanyl)phenyl]-6-methyl-2-oxo-1-[3-(trifluoromethyl)phenyl]-1,2,3,4-tetrahydropyrimidine-5-carbonitrile], the half-inhibitory concentration (IC50) in data set [1] was under 0.3 nM.
`CC1=C(C#N)[C@@H](c2ccc(C#N)cc2S(C)(=O)=O)N(S(C)(=O)=O)C(=O)N1c1cccc(C(F)(F)F)c1` [Example 27, (4S)-4-[4-Cyano-2-(methylsulfonyl)phenyl]-6-methyl-3-(methylsulfonyl)-2-oxo-1-[3-(trifluoromethyl)phenyl]-1,2,3,4-tetrahydropyrimidine-5-carbonitrile]: in the data set on rat hepatocytes, the “CLblood, calculated blood clearance” value is 6.7 mL/min/kg and the “Fmax, maximum possible bioavailability” value was 91%. Moreover, in data set [1], the IC50 was under 0.3 nM.
For the compound `CC1=C(C(=O)OCCO)[C@@H](c2ccc(C#N)cc2S(C)(=O)=O)N(S(C)(=O)=O)C(=O)N1c1cccc(C(F)(F)F)c1` [Example 144, 2-Hydroxyethyl (4S)-4-[4-cyano-2-(methylsulfonyl)phenyl]-6-methyl-3-(methylsulfonyl)-2-oxo-1-[3-(trifluoromethyl)phenyl]-1,2,3,4-tetrahydropyrimidine-5-carboxylate], in the data set with rat hepatocytes, the “CLblood, calculated blood clearance” value was 20 mL/min/kg and the “Fmax, maximum possible bioavailability” value was found to be 72%. Also, in data set [1], the IC50 is under 0.3 nM.
As for `CC1=C(C#N)[C@@H](c2ccc(C#N)cc2S(C)(=O)=O)N(C(=O)NCCOCCO)C(=O)N1c1cccc(C(F)(F)F)c1` [Example 14, (6S)-5-Cyano-6-[4-cyano-2-(methylsulfonyl)phenyl]-N-[2-(2-hydroxyethoxy)ethyl]-4-methyl-2-oxo-3-[3-(trifluoromethyl)phenyl]-3,6-dihydropyrimidine-1(2H)-carboxamide], the IC50 in data set [1] was under 0.3 nM.
In the case of `CC1=C(C#N)[C@@H](c2ccc(C#N)cc2S(C)(=O)=O)N(C(=O)N2CCN(CCO)CC2)C(=O)N1c1cccc(C(F)(F)F)c1` [Example 20, (4S)-4-[4-Cyano-2-(methylsulfonyl)phenyl]-3-{[4-(2-hydroxyethyl)piperazin-1-yl]carbonyl}-6-methyl-2-oxo-1-[3-(trifluoromethyl)phenyl]-1,2,3,4-tetrahydropyrimidine-5-carbonitrile], the 50% inhibitory concentration (IC50) in data set [1] stood at 1.9 nM. In other words, the single-digit nanomolar range.
`CC1=C(C#N)[C@@H](c2ccc(C#N)cc2S(C)(=O)=O)N(C(=O)NC(C)(C)CO)C(=O)N1c1cccc(C(F)(F)F)c1` [Example 85] gave a half-inhibitory concentration (IC50) in data set [1] of under 0.3 nM.
Consider `CC1=C(C#N)[C@@H](c2ccc(C#N)cc2S(C)(=O)=O)N(C(=O)N2CC(O)C2)C(=O)N1c1cccc(C(F)(F)F)c1` [Example 51, (4S)-4-[4-Cyano-2-(methylsulfonyl)phenyl]-3-[(3-hydroxyazetidin-1-yl)carbonyl]-6-methyl-2-oxo-1-[3-(trifluoromethyl)phenyl]-1,2,3,4-tetrahydropyrimidine-5-carbonitrile], for which, in data set [1], the IC50 is under 0.3 nM.
`CC1=C(C#N)[C@@H](c2ccc(C#N)cc2S(C)(=O)=O)N(C(=O)N2CCC[C@@H](N)C2)C(=O)N1c1cccc(C(F)(F)F)c1` [Example 55, (4S)-3-[(3R)-3-Aminopiperidin-1-yl]carbonyl-4-[4-cyano-2-(methylsulfonyl)phenyl]-6-methyl-2-oxo-1-[3-(trifluoromethyl)phenyl]-1,2,3,4-tetrahydropyrimidine-5-carbonitrile]: the IC50 in data set [1] is under 0.3 nM.
Still for that read-out and setting: the same measure for `CC1=C(C#N)[C@@H](c2ccc(C#N)cc2S(C)(=O)=O)N(C(=O)N(CC(C)O)CC(C)O)C(=O)N1c1cccc(C(F)(F)F)c1` (some centres unmarked) [Example 80]: under 0.3 nM.
